For orientation: inhibition means the relative decrease from the control value, in per cent.

21 compounds from PMC2865576 (Journal of medicinal chemistry, 2010) can be followed below.

For data set [1], the system named is intracellular T. gondii tachyzoites in HFF monolayers. As to the kind of experiment: Replication assay. The data set is classed as cell-based, Toxoplasma gondii. The following applies: for inhibition at 10 µM: Toxoplasma gondii, read-out: Inhibition of parasite replication; for Parasite doublings per vacuole, dose-response experiment: separate experiments, authors' unpublished results [37]; for Replication inhibition, result in words: added 2 h after inoculation, 24-26 h.

The subject of data set [2] is human foreskin fibroblast (HFF) host cells. The data set is classed as cell-based. The following applies: 5 days.
Data set [3] relates to tachyzoites of T.gondii strain 2F. As to the kind of experiment: Five day growth inhibition assay. In kind it is cell-based, Toxoplasma gondii. Particulars: HFF cells.

Molecules are shown by their SMILES. Entries after “also recorded” stand apart in the source; their conditions may differ. Marks after values point to notes of the source that are not given here.

Turning to `CC1=C(C(=O)NCc2ccc(C)cc2)O[C@@H]2O[C@@]3(C)CC[C@H]4[C@H](C)CC[C@@H]1[C@@]24OO3` [Compound 21], the inhibition at 10 µM in data set [1] is 50%. In the case of `CC1=C(c2nc(-c3ccccc3)no2)O[C@@H]2O[C@@]3(C)CC[C@H]4[C@H](C)CC[C@@H]1[C@@]24OO3` [Compound 14], the results for the “Parasite doublings per vacuole, dose-response experiment” value (“Parasite doublings per vacuole” below) in data set [1] (1 μM), in data set [1] (5 μM) and in data set [1] (10 μM) were 1 doubling, 1 doubling and 0.5 doubling, respectively. In addition, in data set [1] (10 μM), the “Replication inhibition, result in words” value is “effectively inhibited replication”. Further, in data set [1], the inhibition at 10 µM turned out to be 75%. In the case of `CC1=C(c2nc(C)c(C)s2)O[C@@H]2O[C@@]3(C)CC[C@H]4[C@H](C)CC[C@@H]1[C@@]24OO3` [Compound 3], the “Parasite doublings per vacuole” value in data set [1] (1 μM), in data set [1] (5 μM) and in data set [1] (10 μM) was 1 doubling throughout. As to `CO[C@H]1O[C@@H]2O[C@@]3(C)CC[C@H]4[C@H](C)CC[C@@H]([C@H]1C)[C@@]24OO3` [Artemether, reference compound], in data set [1] (10 μM), the “Replication inhibition, result in words” value is reported as “only modest inhibition”. In the case of `COc1cc(Cc2cnc(N)nc2N)cc(OC)c1OC` [Trimethoprim], the “TD50, median cytotoxic dose” value in data set [2] was ≥320 ^b μM. For `CC1=C(c2nc(C3CCCCC3)cs2)O[C@@H]2O[C@@]3(C)CC[C@H]4[C@H](C)CC[C@@H]1[C@@]24OO3` [Compound 8], the “Growth inhibition, result in words” value in data set [3] was “ineffective”. Also, the “Replication inhibition, result in words” value in data set [1] (10 μM) was “only weakly inhibited replication”. Turning to `CC1=C(C(=O)NCc2ccc(C(F)(F)F)cc2)O[C@@H]2O[C@@]3(C)CC[C@H]4[C@H](C)CC[C@@H]1[C@@]24OO3` [Compound 22], the “Replication inhibition, result in words” value in data set [1] (10 μM) is reported as “effectively inhibited replication”. For the same compound, the inhibition at 10 µM in data set [1] was determined as 75%.

Take `C[C@@H]1CC[C@H]2[C@@H](C)C(=O)O[C@@H]3O[C@@]4(C)CC[C@@H]1[C@]32OO4` [Artemisinin, reference compound]: the “Replication inhibition, result in words” value in data set [1] (10 μM) is “no measurable activity”. With `CC1=C(C(=O)NCc2ccc(F)c(F)c2)O[C@@H]2O[C@@]3(C)CC[C@H]4[C@H](C)CC[C@@H]1[C@@]24OO3` [Compound 23], the inhibition at 10 µM in data set [1] worked out at 50%. Consider `CCN(CC)C(=O)C1=C(C)[C@@H]2CC[C@@H](C)[C@@H]3CC[C@@]4(C)OO[C@@]23[C@H](O1)O4` [Compound 16], for which the “Growth inhibition, result in words” value in data set [3] was “ineffective; also recorded: activity is lost”. As to `CC1=C(c2nc(-c3ccccc3)cs2)O[C@@H]2O[C@@]3(C)CC[C@H]4[C@H](C)CC[C@@H]1[C@@]24OO3` [Compound 5], the “Parasite doublings per vacuole” value is recorded as 1 doubling in data set [1] (1 μM), 1 doubling in data set [1] (5 μM) and 0.5 doubling in data set [1] (10 μM). Turning to `CC1=C(c2nc(-c3ccc(S(C)(=O)=O)cc3)cs2)O[C@@H]2O[C@@]3(C)CC[C@H]4[C@H](C)CC[C@@H]1[C@@]24OO3` [Compound 12], the inhibition at 10 µM in data set [1] came to 75%. The same measure, in the same setting: next, `CCNC(=O)C1=C(C)[C@@H]2CC[C@@H](C)[C@@H]3CC[C@@]4(C)OO[C@@]23[C@H](O1)O4` [Compound 15]: 50%. Take `CC1=C(C(=O)NCc2cc(Br)cc(Br)c2)O[C@@H]2O[C@@]3(C)CC[C@H]4[C@H](C)CC[C@@H]1[C@@]24OO3` [Compound 25]: in data set [3], the “Growth inhibition, result in words” value was “potent parasite inhibition”. Moreover, in data set [1] (10 μM), the “Replication inhibition, result in words” value is reported as “completely inhibited replication; also recorded: effectively inhibited replication”.

Consider `CC1=C(c2nc(C)cs2)O[C@@H]2O[C@@]3(C)CC[C@H]4[C@H](C)CC[C@@H]1[C@@]24OO3` [Compound 2], for which the “Parasite doublings per vacuole” value in data set [1] (1 μM) is listed as 2 doubling; in data set [1] (5 μM) it was 1 doubling; in data set [1] (10 μM), 1 doubling.

Regarding `CC1=C(C(=O)NCc2ccc(F)cc2)O[C@@H]2O[C@@]3(C)CC[C@H]4[C@H](C)CC[C@@H]1[C@@]24OO3` [Compound 20], the “Replication inhibition, result in words” value in data set [1] (10 μM) was “effectively inhibited replication”. In addition, the inhibition at 10 µM in data set [1] worked out at 75%. For the compound `CC1=C(c2nc(C)no2)O[C@@H]2O[C@@]3(C)CC[C@H]4[C@H](C)CC[C@@H]1[C@@]24OO3` [Compound 13], in data set [1], the inhibition at 10 µM came to 50%. Turning to `CSc1ccc(-c2csc(C3=C(C)[C@@H]4CC[C@@H](C)[C@@H]5CC[C@@]6(C)OO[C@@]45[C@H](O3)O6)n2)cc1` [Compound 11], in data set [1] (10 μM), the “Replication inhibition, result in words” value is “completely inhibited replication”. For the compound `CC1=C(C(=O)NCc2ccccc2)O[C@@H]2O[C@@]3(C)CC[C@H]4[C@H](C)CC[C@@H]1[C@@]24OO3` [Compound 18], in data set [1], the inhibition at 10 µM worked out at 50%. On to `CC1=C(c2ncc(C)s2)O[C@@H]2O[C@@]3(C)CC[C@H]4[C@H](C)CC[C@@H]1[C@@]24OO3` [Compound 4], for which the “Parasite doublings per vacuole” value is recorded as 2 doubling in data set [1] (1 μM), 1 doubling in data set [1] (5 μM) and 1 doubling in data set [1] (10 μM). On to `CC1=C(C(=O)NCc2cc(F)cc(F)c2)O[C@@H]2O[C@@]3(C)CC[C@H]4[C@H](C)CC[C@@H]1[C@@]24OO3` [Compound 24], for which, in data set [3], the “Growth inhibition, result in words” value is “potent parasite inhibition”. The inhibition at 10 µM in data set [1] was 50%.
